Reference: PubChem BioAssay AID330 (DTP/NCI, 2004)
Where “and” joins values, the source holds several entries; their conditions need not be identical. Equal values may be shown once. Toxic doses and inconclusive results are not listed.

Tested on: P388 leukemia ip, CD2F1 mice, survival T/C
Test: NCI In Vivo Anticancer Drug Screen. Data for tumor model P388 Leukemia (intraperitoneal) in CD2F1 (CDF1) mice
Details: endpoint: median survival time, higher = longer survival
How it was run: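 Mice carrying the transplanted tumor received test compound or vehicle. Survival was recorded in each group, and the value is the treated-group measurement divided by that of the vehicle-treated control group.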

[1] = dose: 50.0 mg/kg/injection, schedule: Q01DX005 (ip), vehicle: saline with Tween-80
[2] = dose: 100.0 mg/kg/injection, schedule: Q01DX005 (ip), vehicle: saline with Tween-80
[3] = dose: 200.0 mg/kg/injection, schedule: Q01DX005 (ip), vehicle: saline with Tween-80
[4] = dose: 50.0 mg/kg/injection, schedule: Q01DX005 (ip), vehicle: Klucel (hydroxypropylcellulose) (HPC)
[5] = dose: 50.0 mg/kg/injection, schedule: Q01DX009 (ip), vehicle: saline with Tween-80

`O=C1c2ccccc2C(=O)c2c(NCCNCCO)ccc(O)c21` was tested, and the T/C (dose: 1.25 mg/kg/injection, schedule: Q01DX009 (ip), vehicle: acid diluted with saline) was 118 % of control and 122 % of control, the T/C (dose: 2.5 mg/kg/injection, schedule: Q01DX009 (ip), vehicle: acid diluted with saline) was 216 % of control and the T/C (dose: 3.12 mg/kg/injection, schedule: Q04DX002 (ip), vehicle: water) was 110 % of control. The T/C (dose: 5.0 mg/kg/injection, schedule: Q01DX005 (ip), vehicle: saline) was 258 % of control, the T/C (dose: 5.0 mg/kg/injection, schedule: Q01DX005 (iv), vehicle: saline) was 119 % of control and the T/C (dose: 5.0 mg/kg/injection, schedule: Q01DX009 (ip), vehicle: acid diluted with saline) was 274 % of control. For the same compound, the T/C (dose: 5.0 mg/kg/injection, schedule: Q01DX009 (ip), vehicle: distilled water + Tween-80) was 177 % of control, the T/C (dose: 6.25 mg/kg/injection, schedule: Q04DX002 (ip), vehicle: other) was 120 % of control and the T/C (dose: 10.0 mg/kg/injection, schedule: Q01DX001 (iv), vehicle: saline) was 108 % of control. The T/C (dose: 10.0 mg/kg/injection, schedule: Q01DX005 (ip), vehicle: saline) was 276 % of control, the T/C (dose: 10.0 mg/kg/injection, schedule: Q01DX005 (iv), vehicle: saline) was 151 % of control and the T/C (dose: 10.0 mg/kg/injection, schedule: Q01DX009 (ip), vehicle: acid diluted with saline) was 436 % of control. The T/C (dose: 10.0 mg/kg/injection, schedule: Q01DX009 (ip), vehicle: distilled water + Tween-80) was 247 % of control, the T/C (dose: 10.0 mg/kg/injection, schedule: Q04DX003 (ip), vehicle: saline) was 185 % of control and the T/C (dose: 10.0 mg/kg/injection, schedule: Q04DX003 (iv), vehicle: saline) was 116 % of control. For the same compound, the T/C (dose: 19.4 mg/kg/injection, schedule: Q04DX003 (ip), vehicle: saline) was 259 % of control, the T/C (dose: 20.0 mg/kg/injection, schedule: Q01DX001 (ip), vehicle: saline) was 190 % of control and the T/C (dose: 20.0 mg/kg/injection, schedule: Q01DX001 (iv), vehicle: saline) was 116 % of control. For the same compound, the T/C (dose: 20.0 mg/kg/injection, schedule: Q01DX005 (ip), vehicle: saline) was 312 % of control, the T/C (dose: 20.0 mg/kg/injection, schedule: Q01DX005 (iv), vehicle: saline) was 177 % of control and the T/C (dose: 20.0 mg/kg/injection, schedule: Q01DX009 (ip), vehicle: acid diluted with saline) was 158 % of control. For the same compound, the T/C (dose: 20.0 mg/kg/injection, schedule: Q01DX009 (ip), vehicle: distilled water + Tween-80) was 211 % of control, the T/C (dose: 20.0 mg/kg/injection, schedule: Q04DX003 (ip), vehicle: saline) was 214 % of control and the T/C (dose: 25.0 mg/kg/injection, schedule: Q04DX002 (ip), vehicle: other) was 116 % of control. The T/C (dose: 25.0 mg/kg/injection, schedule: Q04DX002 (ip), vehicle: water) was 198 % of control, the T/C (dose: 32.4 mg/kg/injection, schedule: Q04DX003 (ip), vehicle: saline) was 211 % of control and the T/C (dose: 40.0 mg/kg/injection, schedule: Q01DX001 (ip), vehicle: saline) was 205 % of control. The T/C (dose: 40.0 mg/kg/injection, schedule: Q01DX009 (ip), vehicle: acid diluted with saline) was 150 % of control and 163 % of control, the T/C (dose: 40.0 mg/kg/injection, schedule: Q04DX003 (ip), vehicle: saline) was 223 % of control and the T/C (dose: 50.0 mg/kg/injection, schedule: Q04DX002 (ip), vehicle: other) was 103 % of control. The T/C (dose: 50.0 mg/kg/injection, schedule: Q04DX002 (ip), vehicle: water) was 261 % of control, the T/C (dose: 80.0 mg/kg/injection, schedule: Q01DX001 (ip), vehicle: saline) was 178 % of control and the T/C (dose: 100.0 mg/kg/injection, schedule: Q04DX002 (ip), vehicle: water) was 157 % of control and 161 % of control. The T/C (dose: 200.0 mg/kg/injection, schedule: Q04DX002 (ip), vehicle: water) was 188 % of control.

With `CC1C(O)C(C)C(c2ccccc2)N(C)C1c1ccccc1` (stereo not drawn) the T/C [1] was 100 % of control, the T/C [2] was 106 % of control and the T/C [3] was 106 % of control.

`C[Si]1(C)O[Si](C)(C)O[Si](C)(C)O[Si](C)(C)O1` was tested, and the T/C [4] was 100 % of control, the T/C (dose: 100.0 mg/kg/injection, schedule: Q01DX005 (ip), vehicle: Klucel (hydroxypropylcellulose) (HPC)) was 97 % of control and the T/C (dose: 200.0 mg/kg/injection, schedule: Q01DX005 (ip), vehicle: Klucel (hydroxypropylcellulose) (HPC)) was 97 % of control.

In the case of `CP1(=S)CC(Br)=C2CCCCC21` (stereo not drawn), the T/C (dose: 100.0 mg/kg/injection, schedule: Q04DX003 (ip), vehicle: Klucel (hydroxypropylcellulose) (HPC)) is reported as 108 % of control, the T/C (dose: 200.0 mg/kg/injection, schedule: Q04DX003 (ip), vehicle: Klucel (hydroxypropylcellulose) (HPC)) is reported as 106 % of control and the T/C (dose: 400.0 mg/kg/injection, schedule: Q04DX003 (ip), vehicle: Klucel (hydroxypropylcellulose) (HPC)) is reported as 107 % of control.

In the case of `O[C@@H]1c2sccc2C2NC21` (stereo partly drawn), the T/C (dose: 50.0 mg/kg/injection, schedule: Q01DX001 (ip), vehicle: saline) is reported as 98 % of control, the T/C (dose: 100.0 mg/kg/injection, schedule: Q01DX001 (ip), vehicle: saline) is reported as 95 % of control and the T/C (dose: 200.0 mg/kg/injection, schedule: Q01DX001 (ip), vehicle: saline) is reported as 98 % of control.

With `CCN(CC)Cc1cc(C)c(O)c(N=Nc2ccc([N+](=O)[O-])cc2)c1C` the T/C (dose: 100.0 mg/kg/injection, schedule: Q04DX002 (ip), vehicle: saline with Tween-80) was 101 % of control, the T/C (dose: 200.0 mg/kg/injection, schedule: Q04DX002 (ip), vehicle: saline with Tween-80) was 99 % of control and the T/C (dose: 400.0 mg/kg/injection, schedule: Q04DX002 (ip), vehicle: saline with Tween-80) was 97 % of control.

For `CC(=O)C(c1ccccc1)S(=O)(=O)c1ccc(C)cc1` (stereo not drawn), the T/C (dose: 25.0 mg/kg/injection, schedule: Q01DX005 (ip), vehicle: saline with Tween-80) was 97 % of control, the T/C [1] was 94 % of control and the T/C [2] was 87 % of control.

In the case of `Clc1ccc(-c2cc(-c3cc(-c4ccc(Cl)c(Cl)c4)n[nH]3)[nH]n2)cc1Cl`, the T/C (dose: 60.0 mg/kg/injection, schedule: Q01DX005 (ip), vehicle: Klucel (hydroxypropylcellulose) (HPC)) is reported as 97 % of control, the T/C (dose: 120.0 mg/kg/injection, schedule: Q01DX005 (ip), vehicle: Klucel (hydroxypropylcellulose) (HPC)) is reported as 86 % of control and the T/C (dose: 240.0 mg/kg/injection, schedule: Q01DX005 (ip), vehicle: Klucel (hydroxypropylcellulose) (HPC)) is reported as 96 % of control.

In the case of `ClC(Cl)(Cl)Sn1cccn1`, the T/C [5] is reported as 104 % of control and the T/C (dose: 100.0 mg/kg/injection, schedule: Q01DX009 (ip), vehicle: saline with Tween-80) is reported as 97 % of control.

`CC(=O)NC(=S)Nc1cccs1` was tested, and the T/C (dose: 12.5 mg/kg/injection, schedule: Q01DX009 (ip), vehicle: saline with Tween-80) was 99 % of control, the T/C (dose: 25.0 mg/kg/injection, schedule: Q01DX009 (ip), vehicle: saline with Tween-80) was 103 % of control and the T/C [5] was 95 % of control.

In the case of `CC(C)(O)C1COC2=C1C(=O)c1ccccc1C2=O` (stereo not drawn), the T/C (dose: 50.0 mg/kg/injection, schedule: Q01DX009 (ip), vehicle: other) is reported as 94 % of control and the T/C (dose: 100.0 mg/kg/injection, schedule: Q01DX009 (ip), vehicle: other) is reported as 107 % of control.

In the case of `CCOC(=O)Cc1cc(=O)oc2c(CN3CCN(c4ccc(C)cc4)CC3)c(O)ccc12`, the T/C (dose: 60.0 mg/kg/injection, schedule: Q01DX005 (ip), vehicle: saline with Tween-80) is reported as 100 % of control, the T/C (dose: 120.0 mg/kg/injection, schedule: Q01DX005 (ip), vehicle: saline with Tween-80) is reported as 87 % of control and the T/C (dose: 240.0 mg/kg/injection, schedule: Q01DX005 (ip), vehicle: saline with Tween-80) is reported as 99 % of control.

For `CC(=O)/C(=C\c1ccc(/C=C(\C(C)=O)C(=O)CCN(C)C)cc1)C(=O)CCN(C)C`, the T/C [1] was 109 % of control and 118 % of control, the T/C [2] was 120 % of control and the T/C [3] was 105 % of control. The T/C (dose: 400.0 mg/kg/injection, schedule: Q01DX005 (ip), vehicle: saline with Tween-80) was 120 % of control.

For `O=C(O)C1C(C(=O)O)C2(Cl)C(Cl)=C(Cl)C1(Cl)C2(Cl)Cl.[Mn]` (stereo not drawn), the T/C (dose: 50.0 mg/kg/injection, schedule: Q04DX003 (ip), vehicle: saline sonified) was 95 % of control and the T/C (dose: 100.0 mg/kg/injection, schedule: Q04DX003 (ip), vehicle: saline sonified) was 91 % of control.

For `[Br][Sn]([Br])([CH2]CC[CH2][Sn]([Br])([Br])[c]1ccccc1)[c]1ccccc1`, the T/C (dose: 12.5 mg/kg/injection, schedule: Q01DX005 (ip), vehicle: Klucel (hydroxypropylcellulose) (HPC)) was 101 % of control, the T/C (dose: 25.0 mg/kg/injection, schedule: Q01DX005 (ip), vehicle: Klucel (hydroxypropylcellulose) (HPC)) was 117 % of control and the T/C [4] was 115 % of control and 117 % of control.

With `C/C=C1/CN2CCC34c5ccccc5N5C(=O)C(C6CC78c9ccccc9N9C(=O)C=CC(C%10CC7N6C/C%10=C/C)C98)=CC(C1CC23)C54` (stereo not drawn) the T/C (dose: 10.0 mg/kg/injection, schedule: Q01DX009 (ip), vehicle: saline with Tween-80) was 99 % of control, the T/C (dose: 20.0 mg/kg/injection, schedule: Q01DX009 (ip), vehicle: saline with Tween-80) was 104 % of control and the T/C (dose: 40.0 mg/kg/injection, schedule: Q01DX009 (ip), vehicle: saline with Tween-80) was 104 % of control. The T/C (dose: 80.0 mg/kg/injection, schedule: Q01DX009 (ip), vehicle: saline with Tween-80) was 88 % of control.
